# Test results taken from ChEMBL document CHEMBL1201862, “PubChem BioAssay data set” (2004).
# Several values for one entry are separate records, joined by “and”; a condition that tells them apart may be missing. Identical values can stand only once. Activity calls are given as the source filed them.
# How the values were obtained:
# 14-3-3 protein gamma = 14-3-3 protein gamma (Homo sapiens, UniProt P61981); experiment: modulators of 14-3-3 gamma client binding – dose response (AID 711); assay type: functional
# [1] = A549 cell cytotoxicity, dose response, CellTiter-Glo luminescence, dry powder, set 17 (AID 1117284); assay type: functional, cell-based
# Paired box protein Pax-8 = Paired box protein Pax-8 (Homo sapiens, UniProt Q06710); experiment: inhibitors of PAX8-driven TPO luciferase reporter, dose response, RMG-I cells, cherry-pick (AID 687027); assay type: functional, cell-based;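 further: luciferase reporter driven by Pax8 target thyroperoxidase promoter measured by SteadyGlo luminescence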
# [2] = HEK293T cytotoxicity, dose response, cytotoxicity control for miR-122 modulator project, cell-based, activator set, cherry-pick (AID 720690); assay type: functional;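 further: HEK293T human cells scored for general mammalian cytotoxicity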
# [3] = HEK293T cytotoxicity, dose response, cytotoxicity control for miR-122 modulator project, cell-based, inhibitor set, cherry-pick, set 2 (AID 720697); assay type: functional
# [4] = miR-122 activators in hepatoma reporter cells, dose response, cell-based, Huh7 psiCHECK-miR122, Renilla luciferase, cherry-picked (AID 651956); assay type: functional;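 further: huh7 hepatoma cells stably carrying a psiCHECK-2 miR-122 sensor plasmid; renilla luciferase signal reporting endogenous miR-122 activity after 48 h compound exposure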
# [5] = cytotoxicity in OVCAR8 ovarian cancer cells, dose response, PAX8 project, cell-based, plate reader, dry powder samples (AID 743197); assay type: functional; conditions: OVCAR-8
# [6] = A549 cell cytotoxicity, dose response, cytotoxicity control, 24 h, CellTiter-Glo luminescence, cherry-picks (AID 1053115); assay type: functional, cell-based; conditions: A549, 24 h
# [7] = P. falciparum Dd2 growth inhibitors, dose response, SYBR Green, dry powder samples (AID 1159566); assay type: functional, cell-based;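 further: potency for growth inhibition with lower SYBR green DNA signal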
# [8] = P. falciparum ATP4 D1247Y mutant growth inhibitors, dose response, NITD609-resistant line, SYBR Green, dry powder (AID 1159571); assay type: functional, cell-based;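 further: parasites synchronized at ring stage by sorbitol before testing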
# [9] = Plasmodium falciparum Dd2 Sybr green parasite growth Measured in Cell-Based and Microorganism Combination System Using Plate Reader - 2153-01_Inhibitor_Dose_DryPowder_Activity_Set3.; assay type: functional
# [10] = P. falciparum Dd2 growth inhibitors, dose response, SYBR Green, dry powder samples, set 9 (AID 1159568); assay type: functional, cell-based
# [11] = P. falciparum 3D7-ScDHODH growth inhibitors, dose response, SYBR Green, dry powder samples (AID 1159570); assay type: functional, cell-based;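 further: parasite growth measured after 72 hours of compound exposure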
# [12] = P. falciparum Dd2 growth inhibitors, dose response, SYBR Green, cherry-picked samples (AID 1159567); assay type: functional, cell-based
# [13] = HepG2 cell cytotoxicity, dose response, cytotoxicity control, plate reader, dry powder samples (AID 1159569); assay type: functional, cell-based;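 further: inhibitor potency with signal falling toward the positive control level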
# [14] = HEK293 cell cytotoxicity, dose response, cytotoxicity control, luminescence, dry powder, set 12 (AID 743354); assay type: functional, cell-based
# [15] = Dose-response inhibition of insulin secretion in a rat insulinoma line at 5 mM glucose (AID 1117331); assay type: functional, cell-based; conditions: INS-1E
# Cytochrome P450 3A4 = Cytochrome P450 3A4 (Homo sapiens, UniProt P08684);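 further: CYP3A4 tested as one member of a cytochrome P450 panel screen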
# Cytochrome P450 1A2 = biological target: T1, Cytochrome P450 1A2 (Homo sapiens, UniProt P05177);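 further: PubChem cytochrome P450 panel assay, CYP1A2 panel member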
# T1 sequence (P05177 whole entry): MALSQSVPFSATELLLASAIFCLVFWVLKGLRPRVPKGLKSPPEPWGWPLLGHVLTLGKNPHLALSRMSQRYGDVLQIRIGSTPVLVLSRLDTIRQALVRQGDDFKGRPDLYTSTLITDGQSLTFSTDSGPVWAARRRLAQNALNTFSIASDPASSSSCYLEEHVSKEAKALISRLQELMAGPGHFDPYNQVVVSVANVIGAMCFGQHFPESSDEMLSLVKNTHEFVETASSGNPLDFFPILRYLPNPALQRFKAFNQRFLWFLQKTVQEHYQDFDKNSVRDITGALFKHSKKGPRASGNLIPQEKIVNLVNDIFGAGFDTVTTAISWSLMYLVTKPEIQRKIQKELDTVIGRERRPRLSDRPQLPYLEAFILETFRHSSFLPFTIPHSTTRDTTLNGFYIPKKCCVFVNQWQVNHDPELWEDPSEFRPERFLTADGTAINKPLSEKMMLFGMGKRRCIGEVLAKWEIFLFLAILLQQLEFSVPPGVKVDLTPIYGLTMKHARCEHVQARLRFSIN
# SN12K1 = experiment: cells; assay type: functional; conditions: Homo sapiens
# Cytochrome P450 2C9 [16] = biological target: T2, Cytochrome P450 2C9 (Homo sapiens, UniProt P11712); conditions: Potency
# P388 = experiment: cells; assay type: functional; conditions: Mus musculus
# [17] = test system: Streptococcus sp. 'group A'; experiment: growth inhibition of control SK(-) GAS strain, dose response, counter-screen for streptokinase expression inhibitor project, luminescence, kanamycin, BacTiterGlo, confirmation (AID 1900); assay type: functional, organism-based
# P388/ADR = experiment: cells; assay type: functional; conditions: Mus musculus
# [18] = biological target: Voltage-dependent T-type calcium channel subunit alpha-1H (Homo sapiens, UniProt O95180); assay type: functional;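 further: channel activity triggered by adding a high calcium stimulation buffer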
# Streptococcus = experiment: Group A Streptococcus viability loss, dose response, counter-screen for streptokinase expression inhibitor project, luminescence, BacTiterGlo (AID 1915); assay type: functional, organism-based;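 further: potency for reduction of bacterial viability or growth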
# [19] = growth suppression of beta-catenin-knockout colon cells, dose response, cell-based, HCT116, human colon tumor (AID 1045); assay type: functional;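 further: HCT116 colon tumor cells with beta catenin knocked out; cells exposed to compound for 60 hours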
# [20] = cytotoxicity in KRAS-transformed pancreatic duct cells, primary screen, cell-based, fluorescence, HTS (AID 431); assay type: functional; conditions: Homo sapiens;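 further: cell line used: HPDE-C7K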
# [21] = growth suppression of PTEN-null colon cells, dose response, cell-based, HCT116 PTEN knockout (AID 1047); assay type: functional;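 further: HCT116 colon tumor cells with PTEN knocked out; cells exposed to compound for 60 hours before readout; potency for loss of cell viability measured by luminescence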
# Galanin receptor type 2 = Galanin receptor type 2 (Homo sapiens, UniProt O43603); experiment: Dose Response cell-based high-throughput screening assay to identify agonists of galanin receptor 2 (GALR2). [Related pubchem assays: 864 ]; assay type: functional
# [22] = Luminescence Cell-Based Dose Response HTS to Identify Inhibitors of 5'UTR Stem-Loop Driven Prion Protein mRNA Translation in H4 Neuroglioblastoma Cells. [Related pubchem assays: 1827 (Project Summary), 1813 (Primary HTS)]; assay type: functional
# Streptokinase A = biological target: T3, Streptokinase A (Streptococcus pyogenes serotype M1, UniProt P10520); experiment: S. pyogenes streptokinase expression inhibitors, potency, dose response, plasminogen activation absorbance, OD405 (AID 1914); assay type: functional, Streptococcus pyogenes M1 GAS;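 further: secreted streptokinase activity via plasminogen activation per viability signal from cell pellet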
# T3 sequence (P10520 whole entry): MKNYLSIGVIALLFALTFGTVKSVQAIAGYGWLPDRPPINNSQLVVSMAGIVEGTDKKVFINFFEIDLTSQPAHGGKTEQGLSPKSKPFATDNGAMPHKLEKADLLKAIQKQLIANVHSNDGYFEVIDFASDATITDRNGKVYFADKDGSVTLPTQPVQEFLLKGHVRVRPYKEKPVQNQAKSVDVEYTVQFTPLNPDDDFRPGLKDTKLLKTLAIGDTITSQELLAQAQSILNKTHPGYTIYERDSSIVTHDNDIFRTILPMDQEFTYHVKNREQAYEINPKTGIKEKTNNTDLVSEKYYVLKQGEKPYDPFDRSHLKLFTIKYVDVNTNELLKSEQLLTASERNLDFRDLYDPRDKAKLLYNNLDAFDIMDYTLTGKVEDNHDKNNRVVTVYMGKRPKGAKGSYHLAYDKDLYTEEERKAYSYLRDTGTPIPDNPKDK
# [23] = cytotoxicity in HPDE-C7 cells, cell-based, fluorescence, HTS (AID 430); assay type: functional; conditions: Homo sapiens
# [24] = biological target: Dual specificity tyrosine-phosphorylation-regulated kinase 1A (Rattus norvegicus, UniProt Q63470); assay type: biochemical, Homo sapiens
# INS1 = experiment: beta cell apoptosis inhibitors, cytokine rescue, dose response, luminescence, retest (AID 449756); assay type: functional, cell-based; conditions: Rattus norvegicus;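 further: cell death triggered by IL-1 beta plus TNF-alpha plus IFN-gamma mixture; protective hits raise ATP signal compared with cytokine alone wells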
# [25] = cytotoxicity toward HCT116 cells – cell-based, CellTiter-Glo luminescence, IC50, dose response (AID 1117332); assay type: functional; conditions: HCT-116
# [26] = SNU-C1 cell viability reduction, dose response, CellTiter-Glo luminescence (AID 1117323); assay type: functional, cell-based
# [27] = CellTiter-Glo luminescent dose response of DLD-1 viability loss (AID 1117352); assay type: functional
# [28] = HeLa 2N DNA content increase, dose response, cell-based, IC50 (AID 1117349); assay type: functional
# [29] = Glucagon-like peptide 1 release potency, NCI-H716 cell line, dose-response, half-maximal inhibitory concentration (AID 1117344); assay type: functional, cell-based
# [30] = RKO cell viability reduction, dose response, CellTiter-Glo luminescence (AID 1117322); assay type: functional
# [31] = biological target: Eukaryotic translation initiation factor 4E (Mus musculus, UniProt P63073); experiment: eIF4E–eIF4G protein interaction inhibitors, dose response, biochemical, TR-FRET (AID 855); assay type: functional;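 further: potency for disrupting eIF4E binding to eIF4GI seen as loss of FRET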
# [32] = cytotoxicity toward Colo320 cells – cell-based, CellTiter-Glo luminescence, IC50, dose response (AID 1117334); assay type: functional; conditions: COLO 320
# Cytochrome P450 2C9 [33] = biological target: T2, Cytochrome P450 2C9
# [34] = HeLa 4N DNA content increase, dose response, cell-based, IC50 (AID 1117351); assay type: functional
# [35] = cytotoxicity toward HT-29 cells – cell-based, CellTiter-Glo luminescence, IC50, dose response (AID 1117330); assay type: functional
# [36] = Concentration-dependent survival of SW480 colon cancer line, luminescence detection with CellTiter-Glo, half-maximal inhibitory concentration (AID 1117338); assay type: functional
# [37] = half-maximal inhibitory concentration for glucagon-like peptide-1 release, STC-1 cell line, dose-response (AID 1117345); assay type: functional, cell-based
# [38] = biological target: Induced myeloid leukemia cell differentiation protein Mcl-1 (Homo sapiens, UniProt Q07820); experiment: Mcl-1/Noxa binding inhibitor potency, dose response, biochemical, TR-FRET (AID 1417); assay type: functional
# Induced myeloid leukemia cell differentiation protein Mcl-1, sequence (Q07820 whole entry): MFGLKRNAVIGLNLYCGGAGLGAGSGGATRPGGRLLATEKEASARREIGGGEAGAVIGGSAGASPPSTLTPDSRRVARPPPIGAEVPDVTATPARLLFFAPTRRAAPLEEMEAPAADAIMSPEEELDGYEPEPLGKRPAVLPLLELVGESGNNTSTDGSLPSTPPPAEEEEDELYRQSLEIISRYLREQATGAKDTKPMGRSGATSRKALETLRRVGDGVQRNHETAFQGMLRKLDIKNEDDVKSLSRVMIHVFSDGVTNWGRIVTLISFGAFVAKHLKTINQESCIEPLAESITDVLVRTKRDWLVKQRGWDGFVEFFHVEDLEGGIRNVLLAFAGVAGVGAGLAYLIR
# T2 sequence (P11712 whole entry): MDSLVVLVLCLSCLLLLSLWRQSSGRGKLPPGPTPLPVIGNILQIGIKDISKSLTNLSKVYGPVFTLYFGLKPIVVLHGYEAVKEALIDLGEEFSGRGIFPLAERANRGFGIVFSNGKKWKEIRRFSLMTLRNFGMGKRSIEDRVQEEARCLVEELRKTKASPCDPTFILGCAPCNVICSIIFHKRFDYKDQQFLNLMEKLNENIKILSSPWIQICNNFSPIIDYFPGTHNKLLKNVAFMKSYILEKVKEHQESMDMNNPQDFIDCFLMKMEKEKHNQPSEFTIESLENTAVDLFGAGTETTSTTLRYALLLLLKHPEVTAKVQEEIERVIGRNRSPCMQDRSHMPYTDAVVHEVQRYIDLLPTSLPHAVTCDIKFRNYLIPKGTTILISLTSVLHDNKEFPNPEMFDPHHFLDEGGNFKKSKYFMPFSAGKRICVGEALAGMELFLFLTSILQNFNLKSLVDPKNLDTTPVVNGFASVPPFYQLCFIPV
# Voltage-dependent T-type calcium channel subunit alpha-1H, sequence (O95180 whole entry): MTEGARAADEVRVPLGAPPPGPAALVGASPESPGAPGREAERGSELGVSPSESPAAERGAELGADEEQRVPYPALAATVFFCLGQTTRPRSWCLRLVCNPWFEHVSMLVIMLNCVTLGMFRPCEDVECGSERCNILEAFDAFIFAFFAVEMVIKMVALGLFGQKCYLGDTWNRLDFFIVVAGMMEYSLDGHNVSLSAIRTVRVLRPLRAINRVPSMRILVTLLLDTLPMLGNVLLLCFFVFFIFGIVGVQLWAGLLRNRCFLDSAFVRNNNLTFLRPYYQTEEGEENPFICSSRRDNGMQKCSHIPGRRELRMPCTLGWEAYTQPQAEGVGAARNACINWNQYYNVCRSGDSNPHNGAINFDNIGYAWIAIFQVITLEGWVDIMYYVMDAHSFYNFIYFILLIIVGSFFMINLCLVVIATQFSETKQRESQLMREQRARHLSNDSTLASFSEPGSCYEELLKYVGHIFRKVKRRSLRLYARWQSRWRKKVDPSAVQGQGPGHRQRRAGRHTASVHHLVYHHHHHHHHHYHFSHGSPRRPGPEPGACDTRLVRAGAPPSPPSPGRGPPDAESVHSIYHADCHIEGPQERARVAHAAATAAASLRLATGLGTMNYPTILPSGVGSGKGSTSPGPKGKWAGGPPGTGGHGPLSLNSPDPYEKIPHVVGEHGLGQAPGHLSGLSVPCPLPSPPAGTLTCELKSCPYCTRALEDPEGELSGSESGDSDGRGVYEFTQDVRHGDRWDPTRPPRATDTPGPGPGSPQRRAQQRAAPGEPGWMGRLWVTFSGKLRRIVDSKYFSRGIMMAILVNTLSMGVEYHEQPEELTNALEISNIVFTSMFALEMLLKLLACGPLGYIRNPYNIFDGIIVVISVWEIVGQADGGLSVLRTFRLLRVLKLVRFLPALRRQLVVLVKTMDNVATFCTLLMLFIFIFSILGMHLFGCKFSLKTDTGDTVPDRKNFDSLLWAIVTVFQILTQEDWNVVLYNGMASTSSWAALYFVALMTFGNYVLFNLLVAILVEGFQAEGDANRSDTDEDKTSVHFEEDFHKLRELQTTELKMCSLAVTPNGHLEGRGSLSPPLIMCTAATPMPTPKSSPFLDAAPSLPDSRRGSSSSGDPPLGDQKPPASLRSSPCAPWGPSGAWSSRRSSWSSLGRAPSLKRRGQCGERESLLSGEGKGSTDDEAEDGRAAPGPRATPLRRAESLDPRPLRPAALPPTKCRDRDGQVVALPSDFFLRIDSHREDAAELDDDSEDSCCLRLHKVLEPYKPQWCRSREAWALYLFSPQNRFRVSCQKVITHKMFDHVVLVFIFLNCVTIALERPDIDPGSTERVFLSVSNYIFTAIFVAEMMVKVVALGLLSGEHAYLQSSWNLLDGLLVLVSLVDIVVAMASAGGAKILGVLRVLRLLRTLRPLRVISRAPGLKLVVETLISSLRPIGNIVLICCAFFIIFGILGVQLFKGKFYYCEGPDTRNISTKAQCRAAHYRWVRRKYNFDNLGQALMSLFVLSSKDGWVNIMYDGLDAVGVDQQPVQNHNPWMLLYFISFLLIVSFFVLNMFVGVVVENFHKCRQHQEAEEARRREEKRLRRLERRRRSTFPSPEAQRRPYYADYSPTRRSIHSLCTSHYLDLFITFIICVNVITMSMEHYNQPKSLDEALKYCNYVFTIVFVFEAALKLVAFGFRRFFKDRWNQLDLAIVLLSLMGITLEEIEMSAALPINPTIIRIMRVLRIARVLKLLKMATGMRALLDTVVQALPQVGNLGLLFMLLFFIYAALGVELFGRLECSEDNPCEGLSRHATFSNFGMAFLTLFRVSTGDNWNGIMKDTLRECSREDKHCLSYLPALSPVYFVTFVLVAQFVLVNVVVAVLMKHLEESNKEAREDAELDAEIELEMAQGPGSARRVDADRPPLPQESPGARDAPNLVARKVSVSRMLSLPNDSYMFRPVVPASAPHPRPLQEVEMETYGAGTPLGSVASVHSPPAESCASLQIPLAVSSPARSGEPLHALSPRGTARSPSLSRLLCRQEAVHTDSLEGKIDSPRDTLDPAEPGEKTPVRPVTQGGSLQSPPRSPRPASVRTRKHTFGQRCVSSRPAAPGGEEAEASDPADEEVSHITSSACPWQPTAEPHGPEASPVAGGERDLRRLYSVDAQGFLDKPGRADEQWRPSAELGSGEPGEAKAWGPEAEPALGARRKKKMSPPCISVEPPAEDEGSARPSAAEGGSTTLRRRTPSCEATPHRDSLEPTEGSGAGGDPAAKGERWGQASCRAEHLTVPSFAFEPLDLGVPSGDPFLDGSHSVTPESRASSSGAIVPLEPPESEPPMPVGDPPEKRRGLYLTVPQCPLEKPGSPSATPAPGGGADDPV
# Paired box protein Pax-8, sequence (Q06710 whole entry): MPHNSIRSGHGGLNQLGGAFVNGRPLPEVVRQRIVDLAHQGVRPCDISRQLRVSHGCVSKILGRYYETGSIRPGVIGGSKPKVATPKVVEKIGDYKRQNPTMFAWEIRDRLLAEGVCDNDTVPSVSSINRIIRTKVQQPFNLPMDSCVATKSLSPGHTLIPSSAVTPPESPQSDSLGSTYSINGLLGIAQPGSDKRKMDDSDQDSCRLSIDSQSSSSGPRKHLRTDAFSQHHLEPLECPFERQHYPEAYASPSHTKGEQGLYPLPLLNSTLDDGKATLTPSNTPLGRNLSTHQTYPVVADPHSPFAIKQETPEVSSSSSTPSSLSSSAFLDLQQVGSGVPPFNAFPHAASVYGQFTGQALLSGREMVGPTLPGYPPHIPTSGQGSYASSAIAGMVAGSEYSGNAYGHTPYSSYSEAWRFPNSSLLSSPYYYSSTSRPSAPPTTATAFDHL
# Galanin receptor type 2, sequence (O43603 whole entry): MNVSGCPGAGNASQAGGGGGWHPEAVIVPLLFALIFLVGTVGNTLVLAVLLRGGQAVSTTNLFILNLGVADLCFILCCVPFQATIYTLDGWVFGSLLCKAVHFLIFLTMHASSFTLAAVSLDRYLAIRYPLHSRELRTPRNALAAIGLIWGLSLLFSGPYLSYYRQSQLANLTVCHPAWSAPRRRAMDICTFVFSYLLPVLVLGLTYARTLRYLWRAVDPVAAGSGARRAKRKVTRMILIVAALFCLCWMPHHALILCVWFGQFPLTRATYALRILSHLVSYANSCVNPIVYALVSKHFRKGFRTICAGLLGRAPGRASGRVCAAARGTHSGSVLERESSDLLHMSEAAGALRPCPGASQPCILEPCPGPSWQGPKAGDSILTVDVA
# Cytochrome P450 3A4, sequence (P08684 whole entry): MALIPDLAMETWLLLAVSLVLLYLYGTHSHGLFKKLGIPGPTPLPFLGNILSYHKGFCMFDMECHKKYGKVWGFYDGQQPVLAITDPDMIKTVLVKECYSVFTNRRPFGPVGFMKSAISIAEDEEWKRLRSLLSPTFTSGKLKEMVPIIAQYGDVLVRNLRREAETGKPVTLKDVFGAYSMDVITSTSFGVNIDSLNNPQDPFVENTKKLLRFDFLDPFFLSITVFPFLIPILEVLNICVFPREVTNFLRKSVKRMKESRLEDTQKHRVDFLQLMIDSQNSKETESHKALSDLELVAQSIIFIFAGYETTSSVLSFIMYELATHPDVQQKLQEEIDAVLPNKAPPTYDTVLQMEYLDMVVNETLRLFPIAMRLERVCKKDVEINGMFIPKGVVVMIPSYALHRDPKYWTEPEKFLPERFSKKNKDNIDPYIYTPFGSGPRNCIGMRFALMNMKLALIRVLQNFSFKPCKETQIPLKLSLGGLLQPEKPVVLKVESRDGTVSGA
# 14-3-3 protein gamma, sequence (P61981 whole entry): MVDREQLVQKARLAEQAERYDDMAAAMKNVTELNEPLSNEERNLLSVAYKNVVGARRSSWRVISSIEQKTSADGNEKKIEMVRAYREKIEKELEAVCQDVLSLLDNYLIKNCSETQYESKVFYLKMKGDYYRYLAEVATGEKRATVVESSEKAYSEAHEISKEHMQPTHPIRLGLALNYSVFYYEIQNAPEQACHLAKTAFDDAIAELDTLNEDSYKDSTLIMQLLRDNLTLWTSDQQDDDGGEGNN
# Eukaryotic translation initiation factor 4E, sequence (P63073 whole entry): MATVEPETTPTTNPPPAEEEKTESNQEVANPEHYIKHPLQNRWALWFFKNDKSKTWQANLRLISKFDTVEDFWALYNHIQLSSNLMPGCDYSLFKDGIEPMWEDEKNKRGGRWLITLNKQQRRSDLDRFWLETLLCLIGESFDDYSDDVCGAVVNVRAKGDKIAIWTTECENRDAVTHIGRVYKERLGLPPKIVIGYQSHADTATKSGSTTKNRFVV
compound,measurement,setting,value
O=C(Cn1cc2c(n1)CCCC2)NCc1ccccn1,IC50,14-3-3 protein gamma,25600 nM (active)
C[C@H](O)C#Cc1ccc2c(c1)O[C@@H](CN(C)Cc1ccc(-c3ccccc3)cc1)[C@@H](C)CN([C@@H](C)CO)S2(=O)=O,AC50,[1],22600 nM (active)
same,AC50,Paired box protein Pax-8,11500 nM (active)
same,AC50,[2],11200 nM (active)
same,AC50,[3],< 195 nM (active)
same,AC50,[4],14700 nM (active)
same,AC50,[5],> 70000 nM (inactive)
same,AC50,[6],> 60000 nM (inactive)
COc1ccccc1CN1C[C@@H](C)[C@H](OC)CN(C)C(=O)c2ccc(NC(=O)Nc3ccccc3OC)cc2OC[C@H]1C,AC50,[7],18.5 nM (active)
same,AC50,[8],163 nM (active)
same,AC50,[9],189 nM (active)
same,AC50,[10],116 nM (active)
same,AC50,[11],2100 nM (active)
same,AC50,[12],< 300 nM (active)
same,AC50,[13],> 100000 nM (inactive)
CC(=O)c1ccc(N2CCN(C(=O)c3ccccc3F)CC2)cc1,AC50,[14],> 52000 nM (inactive)
O=C(CCCN1CCC(O)(c2ccc(Br)cc2)CC1)c1ccc(F)cc1 [BROMPERIDOL],IC50,[15],> 33300 nM (inactive)
same,AC50,Cytochrome P450 3A4,inconclusive
same,AC50,Cytochrome P450 1A2,5.01 µM (inconclusive)
Cc1c2ccncc2c(C)c2c1[nH]c1ccccc12 [ELLIPTECINE],GI50,SN12K1,560 nM (active)
same,AC50,Cytochrome P450 2C9 [16],39800 nM (inconclusive)
same,GI50,P388,383 nM (active)
same,EC50,[17],2250 nM (active)
same,GI50,P388/ADR,824 nM (active)
same,EC50,[18],3990 nM (active)
same,EC50,Streptococcus,7700 nM (active)
same,EC50,[19],117 nM (active)
same,EC50,[20],2400 nM (active)
same,EC50,[21],177 nM (active)
same,EC50,Galanin receptor type 2,> 55700 nM (not active)
same,EC50,[22],> 120000 nM (not active)
same,EC50,Streptokinase A,> 150000 nM (not active)
same,EC50,[23],6170 nM (active)
same,AC50,[24],231 nM (active)
same,AC50,INS1,2120 nM (active)
Cc1cc2c(C(C)C)c(O)c(O)c(C=O)c2c(O)c1-c1c(C)cc2c(C(C)C)c(O)c(O)c(C=O)c2c1O [GOSSYPOL],IC50,[25],784 nM (active)
same,IC50,[26],354 nM (active)
same,IC50,[27],834 nM (active)
same,IC50,[28],> 10000 nM (inactive)
same,IC50,[29],23400 nM (inactive)
same,IC50,[30],916 nM (active)
same,IC50,[31],> 64000 nM (inactive)
same,IC50,[32],1380 nM (active)
same,AC50,Cytochrome P450 2C9 [33],31.6 µM (inconclusive) and 15.8 µM (inconclusive)
same,IC50,[34],> 10000 nM (inactive)
same,IC50,[35],1420 nM (active)
same,AC50,Cytochrome P450 1A2,15.8 µM (inconclusive) and 39.8 µM (inconclusive)
same,IC50,[36],956 nM (active)
same,IC50,[37],> 40000 nM (inactive)
same,IC50,[38],1520 nM (active)
